Laboratory results: patent US20150080475A1, “Memantine Protects Inflammation-Related Degeneration of Dopamine Neurons Through Inhibition of Over-Activated Microglia and Release of Neurotrophic Factors From Astroglia” (priority 2009, published 2015)

Tested on: DA neurons
Assay: MPP+-induced reduction in DA uptake in neuron-enriched cultures
Assay type: cell-based
Details: MPP+ 0.25 μM, seven days, neuron-enriched cultures
Method: Mesencephalic neuron-glia cultures were seeded (5×10^5/well) in 24 well plates precoated with poly D-lysine. Thirty-six hours postseeding, 5-10 μM cytosine β-D-arabinofuranoside was added to the culture. After 2 days, the cytosine β-D-arabinofuranoside was removed and replaced with fresh media. Neuron-enriched cultures are 98% pure, as indicated by ICC staining with OX-42 and GFAP antibodies. Neuron-enriched cultures were treated 7 days post-seeding. For microglia add-back cultures, the microglia were plated on top of the neuron-enriched culture at 6 days postseeding, resulting in the addition of either 10% (500 μL of 1×10^5) or 20% (500 μL of 2×10^5) microglia. […]
Cells were incubated in Krebs-Ringer buffer (16 mM NaH2PO4, 1.2 mM MgSO4, 1.3 mM EDTA, […], for 21 min at 37° C. with 1 μM [^3H] DA. Nonspecific uptake was blocked for DA with 10 μM mazindole. After incubation, cells were washed three times with 1 mL/well of ice-cold Krebs-Ringer buffer. Cells were then lysed with 0.5 mL/well of 1 N NaOH and mixed with 15 mL of scintillation fluid. Radioactivity was measured on a scintillation counter, where specific [^3H] DA uptake was calculated by subtracting the mazindole.
To determine whether the neuroprotective effect of MMT was dependent on the presence of glial cells, the effects of MMT on the neuron-enriched cultures were determined. […]

For `C[n+]1ccc(-c2ccccc2)cc1` [MPP^+], the “reduction of DA uptake compared with control cultures” value was 31%.
